One series addresses T1, MAO-A enzyme (Homo sapiens, UniProt P21397).
T1 construct: purchased Sigma-Aldrich
T1 sequence (P21397 1-527): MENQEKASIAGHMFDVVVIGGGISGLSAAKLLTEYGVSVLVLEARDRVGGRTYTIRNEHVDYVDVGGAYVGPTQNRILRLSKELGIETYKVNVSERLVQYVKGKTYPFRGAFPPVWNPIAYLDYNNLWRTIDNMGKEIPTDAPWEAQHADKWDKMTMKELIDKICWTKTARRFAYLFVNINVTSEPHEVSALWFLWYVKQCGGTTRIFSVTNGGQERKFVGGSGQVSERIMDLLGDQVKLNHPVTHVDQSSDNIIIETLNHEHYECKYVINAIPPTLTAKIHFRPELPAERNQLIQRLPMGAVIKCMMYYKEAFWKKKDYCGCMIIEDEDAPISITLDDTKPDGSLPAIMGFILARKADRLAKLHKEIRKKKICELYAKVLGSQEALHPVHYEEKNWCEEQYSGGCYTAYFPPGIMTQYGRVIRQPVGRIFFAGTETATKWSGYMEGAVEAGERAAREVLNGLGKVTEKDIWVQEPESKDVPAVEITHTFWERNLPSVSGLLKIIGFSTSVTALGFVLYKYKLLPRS
Description: MAO activity assay (fluorometric, kynuramine substrate), MAO-A. It counts as biochemical. The note with it: for inhibition at 1000 µM: 10^−3 M; for inhibition at 1000 µM / inhibition at 100 µM: ± S.D.; for inhibition at 100 µM: 10^−4 M; for inhibition at 10 µM: 10^−5 M; for inhibition at 1 µM: 10^−6 M; for inhibition at 0.1 µM: 10^−7 M; for inhibition at 0.01 µM: 10^−8 M; for inhibition at 0.001 µM: 10^−9 M. The method, then:
The enzyme activity assay was performed in accordance with the procedure reported by Matsumoto et al. with slight modifications. All materials used in the enzymatic assays were purchased from Sigma-Aldrich Chemicals. All pipetting protocols in the assay were performed by the Biotek Precision robotic system (BioTek Instruments, Inc., Winooski, VT, USA). To prevent the effect of light MAO enzymes, the assay was performed in 96-well black plates. […] The enzyme stock solutions were further diluted with an assay buffer to obtain final concentrations of 0.006 mg/mL MAO-A and 0.015 mg/mL MAO-B. Kynuramine was dissolved in sterilized distilled water to obtain a 25 mM stock solution and then diluted with the assay buffer to obtain final concentrations of 40 μM for the MAO-A enzyme and 20 μM for the MAO-B enzyme. […] The addition of the diluted compounds was followed by the addition of either the MAO-A or MAO-B enzymes (50 μL/well). […] Fluorescence was read from top by using BioTek-Synergy H1 multimode microplate reader at the excitation/emission wavelengths of 310 and 380 nm.
(§1) The IC50 values (Table 2) were calculated from the plots of enzyme activity against concentrations, and the regression analyses were computed in GraphPad Prism Version 6 (GraphPad Software, Inc., La Jolla, CA, USA).

In another series the target is T2, human recombinant MAO-B (Homo sapiens, UniProt P27338).
T2 construct: purchased Sigma-Aldrich
T2 sequence (P27338 1-520): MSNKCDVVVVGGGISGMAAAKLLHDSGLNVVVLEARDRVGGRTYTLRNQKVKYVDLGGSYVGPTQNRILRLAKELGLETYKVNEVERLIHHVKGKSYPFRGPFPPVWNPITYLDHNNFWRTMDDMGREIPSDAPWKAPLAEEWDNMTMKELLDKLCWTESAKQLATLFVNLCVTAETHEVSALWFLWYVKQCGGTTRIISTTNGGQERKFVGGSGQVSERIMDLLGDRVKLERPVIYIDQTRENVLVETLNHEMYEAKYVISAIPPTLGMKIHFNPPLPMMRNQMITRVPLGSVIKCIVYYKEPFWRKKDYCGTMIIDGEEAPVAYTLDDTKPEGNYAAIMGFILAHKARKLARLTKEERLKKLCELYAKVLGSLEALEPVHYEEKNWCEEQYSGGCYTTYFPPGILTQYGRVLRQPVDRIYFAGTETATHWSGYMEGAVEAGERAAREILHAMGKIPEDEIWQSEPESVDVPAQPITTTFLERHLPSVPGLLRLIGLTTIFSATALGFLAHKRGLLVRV
In words: MAO activity assay (fluorometric, kynuramine substrate), MAO-B. The class given is biochemical. The note with it: ± S.D.; for inhibition at 1000 µM: 10^−3 M; for inhibition at 100 µM: 10^−4 M. The method, then:
The enzyme activity assay was performed in accordance with the procedure reported by Matsumoto et al. with slight modifications. All materials used in the enzymatic assays were purchased from Sigma-Aldrich Chemicals. All pipetting protocols in the assay were performed by the Biotek Precision robotic system (BioTek Instruments, Inc., Winooski, VT, USA). To prevent the effect of light MAO enzymes, the assay was performed in 96-well black plates. Phosphate buffer (0.1 M, pH = 7.4) was used for the preparation of 5 mg/mL stock solutions of the human recombinant MAO-A and MAO-B enzymes. The enzyme stock solutions were further diluted with an assay buffer to obtain final concentrations of 0.006 mg/mL MAO-A and 0.015 mg/mL MAO-B. Kynuramine was dissolved in sterilized distilled water to obtain a 25 mM stock solution and then diluted with the assay buffer to obtain final concentrations of 40 μM for the MAO-A enzyme and 20 μM for the MAO-B enzyme. […] The addition of the diluted compounds was followed by the addition of either the MAO-A or MAO-B enzymes (50 μL/well). […] Fluorescence was read from top by using BioTek-Synergy H1 multimode microplate reader at the excitation/emission wavelengths of 310 and 380 nm.
as §1

The nature of series [1]: Cytotoxicity test (MTT assay). The note with it: mouse, NIH/3T3 mouse embryonic fibroblast cells (ATCC CRL-1658).
Description: The MTT assay was performed as previously described [21, 22, 23, 24, 25, 26].

The record followed here is paper PMC6017090, “Design, Synthesis and Biological Evaluation of Novel N-Pyridyl-Hydrazone Derivatives as Potential Monoamine Oxidase (MAO) Inhibitors” (Molecules : A Journal of Synthetic Chemistry and Natural …, 2018).

On to `CCOc1ccc([N+](=O)[O-])c(NN=Cc2ccccc2)n1` [Compound 2a, 2-(2-Benzylidenehydrazinyl)-6-ethoxy-3-nitropyridine], for which the melting point was found to be 168 °C. Further, at MAO-A enzyme, the inhibition at 1000 µM was found to be 25.6 ± 0.88% and the inhibition at 100 µM was 17.9 ± 0.68%. On human recombinant MAO-B, the inhibition at 1000 µM turned out to be 0.76 ± 0.03% and the inhibition at 100 µM is 0.58 ± 0.01%.
Compound `CCOc1ccc([N+](=O)[O-])c(NN=Cc2ccc(Cl)cc2)n1` [Compound 2b, 2-[2-(4-Chlorobenzylidene)hydrazinyl]-6-ethoxy-3-nitropyridine] registered a melting point of 211 °C. At MAO-A enzyme, the inhibition at 1000 µM was found to be 49 ± 1.22% and the inhibition at 100 µM is 0.46 ± 0.01%. Further, at human recombinant MAO-B, the inhibition at 1000 µM is 0.43 ± 0.02% and the inhibition at 100 µM amounted to 0.11 ± 0.004%.
On to `CCOc1ccc([N+](=O)[O-])c(NN=Cc2ccc(F)cc2)n1` [Compound 2c, 6-Ethoxy-2-[2(4-fluorobenzylidene)hydrazinyl]-3-nitropyridine], for which the melting point worked out at 191 °C. Moreover, at MAO-A enzyme, the inhibition at 1000 µM came to 52 ± 1.02% and the inhibition at 100 µM is 7.09 ± 0.18%. At human recombinant MAO-B, the inhibition at 1000 µM came out at 60.2 ± 1.18% and the inhibition at 100 µM was 0.69 ± 0.03%.
The matching figures for `CCOc1ccc([N+](=O)[O-])c(NN=Cc2ccc(C)cc2)n1` [Compound 2d, 6-Ethoxy-2-[2-(4-methylbenzylidene)hydrazinyl]-3-nitropyridine]: 171 °C, 20.1 ± 0.41%, 11.4 ± 0.28%, 0.52 ± 0.02% and 0.18 ± 0.006%.
`CCOc1ccc([N+](=O)[O-])c(NN=Cc2ccc(OC)cc2)n1` [Compound 2e, 6-Ethoxy-2-[2-(4-methoxybenzylidene)hydrazinyl]-3-nitropyridine] returned a melting point of 175 °C. For the same compound, at MAO-A enzyme, the inhibition at 1000 µM turned out to be 55.6 ± 1.05% and the inhibition at 100 µM stood at 14 ± 0.41%. Moreover, on human recombinant MAO-B, the inhibition at 1000 µM is 33.1 ± 1.14% and the inhibition at 100 µM came to 0.22 ± 0.008%.
The matching figures for `CCOc1ccc([N+](=O)[O-])c(NN=Cc2ccc([N+](=O)[O-])cc2)n1` [Compound 2f, 6-Ethoxy-3-nitro-2-[2-(4-nitrobenzylidene)hydrazinyl]pyridine]: 281 °C, 65 ± 1.23%, 16 ± 0.56%, 7.39 ± 0.31% and 0.55 ± 0.02%.
In turn, `CCOc1ccc([N+](=O)[O-])c(NN=Cc2ccc(C#N)cc2)n1` [Compound 2g, 6-Ethoxy-2-[2-(4-cyanobenzylidene)hydrazinyl]-3-nitropyridine] gave a melting point of 267 °C. On MAO-A enzyme, the inhibition at 1000 µM came to 25.9 ± 0.87% and the inhibition at 100 µM was determined as 14.4 ± 0.54%. On human recombinant MAO-B, the inhibition at 1000 µM is 0.67 ± 0.03% and the inhibition at 100 µM was determined as 0.27 ± 0.01%.
Regarding `CCOc1ccc([N+](=O)[O-])c(NN=Cc2ccc(N(C)C)cc2)n1` [Compound 2h, 6-Ethoxy-2-[2-(4-dimethylaminobenzylidene)hydrazinyl]-3-nitropyridine], the melting point came out at 192 °C. In addition, at MAO-A enzyme, the inhibition at 1000 µM stood at 80.8 ± 1.31% and the inhibition at 100 µM came to 16.9 ± 0.49%. For the same compound, at human recombinant MAO-B, the inhibition at 1000 µM was determined as 86.3 ± 1.25% and the inhibition at 100 µM was found to be 3.52 ± 0.15%.
The compound `CCOc1ccc([N+](=O)[O-])c(NN=Cc2ccc(C(F)(F)F)cc2)n1` [Compound 2i, 6-Ethoxy-2-[2-(4-trifluoromethylbenzylidene)hydrazinyl]-3-nitropyridine] gave a melting point of 165 °C. Moreover, the IC50 in series [1] is more than 1000 µM. At MAO-A enzyme, the IC50 amounted to 13.1 µM, the inhibition at 1000 µM came to 55.7 ± 1.26%, the inhibition at 100 µM stood at 51.7 ± 1.18% and the inhibition at 10 µM stood at 31.2 ± 1.2%. Further, at MAO-A enzyme, the inhibition at 1 µM amounted to 21.1 ± 0.84%, the inhibition at 0.1 µM amounted to 15.4 ± 0.62%, the inhibition at 0.01 µM amounted to 12.7 ± 0.43% and the inhibition at 0.001 µM is 11.6 ± 0.38%. Also, at human recombinant MAO-B, the inhibition at 1000 µM was found to be 38.3 ± 1.19% and the inhibition at 100 µM stood at 29.1 ± 0.99%.
Regarding `CCOc1ccc([N+](=O)[O-])c(NN=Cc2cccn2C)n1` [Compound 2k, 6-Ethoxy-2-[2-((1-methyl-1H-pyrrol-2-yl)methylene)hydrazinyl]-3-nitropyridine], the melting point was 163 °C. In series [1], this compound displayed an IC50 of more than 1000 µM. For the same compound, at MAO-A enzyme, the concentration for half-maximal inhibition (IC50) came out at 6.12 µM, the inhibition at 1000 µM stood at 76.6 ± 1.38%, the inhibition at 100 µM stood at 66.1 ± 1.47% and the inhibition at 10 µM was determined as 54.7 ± 1.2%. Besides, at MAO-A enzyme, the inhibition at 1 µM came to 36.6 ± 1.08%, the inhibition at 0.1 µM worked out at 33.2 ± 0.92%, the inhibition at 0.01 µM was determined as 25.2 ± 0.88% and the inhibition at 0.001 µM is 23 ± 0.89%. At human recombinant MAO-B, the inhibition at 1000 µM worked out at 40.9 ± 1.02% and the inhibition at 100 µM worked out at 39.7 ± 1.15%.
Regarding `CCOc1ccc([N+](=O)[O-])c(NN=Cc2ccco2)n1` [Compound 2l, 6-Ethoxy-2-[2-((furan-2-yl)methylene)hydrazinyl]-3-nitropyridine], the melting point came out at 155 °C. The same compound displayed a concentration for half-maximal inhibition (IC50) in series [1] of more than 1000 µM. Moreover, on MAO-A enzyme, the IC50 is 10.6 µM, the inhibition at 1000 µM is 67.8 ± 1.44%, the inhibition at 100 µM amounted to 64.4 ± 1.3% and the inhibition at 10 µM worked out at 43 ± 1.02%. Moreover, at MAO-A enzyme, the inhibition at 1 µM was found to be 31 ± 0.98%, the inhibition at 0.1 µM is 27.2 ± 0.89%, the inhibition at 0.01 µM turned out to be 19.8 ± 0.41% and the inhibition at 0.001 µM was determined as 17.88 ± 0.17%. Moreover, on human recombinant MAO-B, the inhibition at 1000 µM stood at 51 ± 1.08% and the inhibition at 100 µM stood at 43 ± 1.06%.
For the compound `CCOc1ccc([N+](=O)[O-])c(NN=Cc2cccs2)n1` [Compound 2m, 6-Ethoxy-3-nitro-2-[2-((thiophen-2-yl)methylene)hydrazinyl]pyridine], the melting point came out at 152 °C. For the same compound, on MAO-A enzyme, the inhibition at 1000 µM was found to be 41.4 ± 1.13% and the inhibition at 100 µM turned out to be 36 ± 1.15%. Also, on human recombinant MAO-B, the inhibition at 1000 µM was 34.4 ± 0.88% and the inhibition at 100 µM stood at 21.2 ± 0.8%.
For `O=C(NCCN1CCOCC1)c1ccc(Cl)cc1` [Moclobemide, moclobemide, reference compound], on MAO-A enzyme, the inhibition at 10 µM was found to be 60.5 ± 2.55%, the inhibition at 1 µM was determined as 36.1 ± 1.98%, the inhibition at 0.1 µM worked out at 22.1 ± 1.33% and the inhibition at 0.01 µM turned out to be 18.2 ± 0.81%. Also, the inhibition at 0.001 µM on MAO-A enzyme is 14.1 ± 0.72%.

In general, inhibition refers to the change of the read-out against control, counted positive when it falls. What is called melting point is the temperature, or range, at which the solid turns liquid. Usually IC50 stands for the concentration at which inhibition is half-maximal.
